The test concerns S. aureus. Description: Antimicrobial activity MIC, microdilution whole cell assay, S. aureus. As to conditions: Staphylococcus aureus; standard whole cell assay; read-out: MIC against S. aureus. In kind it is cell-based. The protocol:
Assay Protocol for Antimicrobial Activity. Minimum inhibitory concentrations (MICs) were determined using the microdilution method in 96-well format plates. Compounds were suspended in DMSO at 5 or 10 mg/ml and stored at 4° C. until used. They were diluted in Mueller-Hinton Broth (MHB) or Trypticase Soy Broth (TSB) and used for MIC determination. The range of concentrations tested was 64-0.0625 μg/ml final concentration using a two-fold dilution system.
The inoculum was prepared from cells grown on Trypticase Soy Agar (TSA) and incubated overnight at 35° C., 5 to 10 colonies were used to inoculate MHB or TSB broths, and the culture was incubated overnight at 35° C. The overnight culture was diluted 1:10, incubated for one hour at 35° C., diluted to the appropriate inoculum size and applied to the wells containing broth and test compound. Inoculum sizes were 1×10^5 to 5×10^5 CFU/ml. Strains used included P. aeruginosa VPAE1001, E. faecium V VEFA1001, E. faecium VanA VEFA1002, S. aureus VSAU1003, S. aureus MRSA VSAU1004, E. coli VEC05, and E. coli (arc-) VEC05.
Plates were incubated at 35° C. for 48 hours and MIC were recorded after 18 hours of incubation, for bacteria, and 48 for yeasts.

In patent US6562844B2, “Oxazolidinone combinatorial libraries, compositions and methods of preparation” (Pharmacia & Upjohn Company, priority 1998, dated 2003) one finds MIC data, which are given here for one molecule.

In brackets after ≈: the same amount, converted by molar mass.

Turning to `CON=Cc1ccc(/C=C/C(=O)NC[C@H]2CN(c3ccc(C(N)=O)c(F)c3)C(=O)O2)cc1`, the MIC (in general, the lowest concentration found to suppress growth) is around 0.5 µg/mL (≈ 1.14 µM).
